These results are taken from patent publication US6890960B1, “Vetiver oil extracts as termite repellent and toxicant” (Board of Supervisors of Louisiana State University and …, priority 1999, dated 2005).

Structures are written as SMILES. Like-named read-outs stand apart in the source and are kept apart here.

Series [1] has as its system Formosan subterranean termites. The format is in vivo. The following applies: for Worker Mortality, Mean ± S.D.: workers only. The method, then: The amount of nootkatone isolated from the vetiver oil was insufficient to test for termite repellant activity. Nootkatone was therefore purchased from a commercial source (Lancaster Synthesis Inc., Windham, N.H.). A three-chambered plastic container was used as described above in Example 2. A small hole was melted at the bottom of each of the two inner walls to connect the chambers. Four replicate chambers were used for each concentration of nootkatone (μg/g of sand) tested: 0, 10 μg/g, 20 μg/g, 100 μg/g, and 200 μg/g. For each concentration, the nootkatone in 25 ml ethyl alcohol was mixed with 500 g #4 blasting sand as described in Example 2. The sand was dried overnight. The next day, 115 g of treated sand was added to the middle chamber; 115 g untreated sand was added to one end chamber, and a weighted filter paper (Whatman #1, 55 mm) was placed in the opposite end chamber. The filter paper had been dried at 70° C. for 3 hr and cooled to room temperature before weighing. Then 10 ml ddH2O was added to each chamber with sand and 200 μl ddH2O was added to the filter paper. Four containers with no nootkatone served as negative controls. Fifty worker and 5 soldier termites from a single colony collected in Algiers, La., were placed in each untreated sand chamber. The chambers were covered and kept in a dark incubator at 29° C.
On the 16th day, the number of live termites was counted, and the bottom of each container was scanned to determine tunneling length as described in Example 2. The filter paper from each container was removed, cleaned, dried at 70° C. for 3 hr, cooled, and finally weighed.
Between-treatment differences in filter paper weight, mortality, and tunnel length in the treated compartments were compared by analysis of variance (ANOVA) and Tukey's Studentized Range Test. The results are presented in Tables 4, 5, and 6 and in FIGS. 1-3.

The test system of series [2] is Formosan subterranean termites. The series is described as follows: Feeding and tunneling experiment with treated balsa wood. The format is in vivo, Coptotermes formosanus. The following applies: data not shown. The method, then:
Balsa wood (5 cm×5 cm×0.5 mm) was soaked for 1 hr in a 1% ethanol solution of either vetiver oil, nootkatone, TIM-BOR®, or an ethanol control. The treated wood was then dried and allowed to air until used in the experiments. The experiments were run at one, three, and six months after the wood was treated. The feeding and tunneling experimental procedure was as described in Example 2, except that in place of the filter paper as food for the termites, treated balsa wood was placed in each end compartment; and untreated sand was placed in all three chambers. Into the center chamber was added 225 workers and 25 soldiers collected from two large Formosan termite colonies in New Orleans, La. Three replicate containers for each of the two colonies and for each treatment of balsa wood were monitored for 8 days. Tunneling activity was periodically checked on days 3, 5, and 7 by scanning the bottoms of the containers. On day 8, the balsa wood was removed and weighed to determine wood consumption.

Another series relates to humans. The conditions noted are these: use in perfumery and flavor industries; cited from earlier work.
In another series the test system is termites. The experiment in a line: Quick petri dish termite distribution assay of α-cedrene (treated vs untreated sand). The format is in vivo. The following applies: 100 μg/dish. The method, then:
The termite bio-activity of α-cedrene, a component of vetiver oil, was tested using a commercially available product (Fluka, a division of Sigma-Aldrich, Inc., St. Louis, Mo.). A new method for screening compounds for termite bio-activity was developed that was faster than the bioassay described in Example 2. Five cm diameter petri dishes with lids were used. Two ml of hot agar solution (1.5 g/100 ml ddH2O) was spread evenly in the bottom of each dish and allowed to cool. The agar solution provided moisture for the termites and held the sand in place. The sand was autoclaved for 30 min, the alcohol with sample added, and dried in an oven. For three dishes, one half of the bottom of each dish was covered with 1.5 g treated sand mixed with a total of 100 μg α-cedrene per dish, dissolved in 250 μl ethanol, and the other half with 1.5 g untreated sand (only ethanol). The sand completely covered the agar, but was not thick enough to conceal tunneling termites. Three dishes were prepared as a control with only untreated sand in each side. Finally, ten termites were added to each dish, and the dishes were covered to eliminate light.
The termite distribution in each dish, measured by counting the number of termites on the untreated half of the dish, was examined each hour for up to 8 hr. […] Therefore the extract was considered a repellent. The extract was considered toxic if some or all termites behaved sluggishly, were moribund or dead.

Consider `C=C(C)C1CCC2=CC(=O)CC(C)C2(C)C1` (stereo not shown) [nootkatone, 4,4a5,6,7,8-hexahydro-6-isopropenyl-4,4a-dimethyl-2(3H)-naphthalenone], for which the “Filter Paper Consumption, Mean ± S.D.” value came out at 0.0019 ± 0.002641 gm in series [1] (10 μg/gm sand, 16th day); 0.000525 ± 0.000709 gm in series [1] (20 μg/gm sand, 16th day); 0.000025 ± 0.000050 gm in series [1] (100 μg/gm sand, 16th day); 0.000275 ± 0.00055 gm in series [1] (200 μg/gm sand, 16th day). The “Tunnel Length in Treated Compartment, Mean ± S.D.” value in series [1] (10 μg/gm sand, 16th day) came out at 7.225 ± 5.155 cm; in series [1] (20 μg/gm sand, 16th day) it was 0.000 ± 0.000 cm; in series [1] (100 μg/gm sand, 16th day), 0.000 ± 0.000 cm; in series [1] (200 μg/gm sand, 16th day), 0.000 ± 0.000 cm. Moreover, the “Worker Mortality, Mean ± S.D.” value in series [1] (10 μg/gm sand, 16th day) came out at 88.50 ± 10.12; in series [1] (20 μg/gm sand, 16th day), 87.00 ± 18.22; in series [1] (100 μg/gm sand, 16th day), 90.50 ± 11.70; in series [1] (200 μg/gm sand, 16th day), 95.00 ± 8.718. Also, the worker mortality result in series [1] (all chambers where the nootkatone concentration was ≦100 μg/g sand) is listed as “Ninety percent mortality or greater”. Also, in series [1] (concentrations higher than 10 μg/g, 16th day), the “tunneling in the middle chamber” value is “no tunneling was visible”. Also, the “consumption of filter paper” value in series [1] (concentrations higher than 20 μg/g) was “Almost no consumption of filter paper”. For the same compound, in series [1] (in sand), the “lowest concentration effective as repellent and toxicant (decreased tunneling and feeding, increased mortality)” value was 10 µg/g. Besides, the “feeding as measured by loss of filter paper weight vs control” value in series [1] (lowest concentration (10 μg/g)) is on record as “significantly decreased feeding”. Besides, the “tunneling activity in middle chamber” value in series [1] (lowest concentration of 10 μg/g, 16th day) is reported as “substantially decreased the tunneling activity”. Further, the “ranking of effect on wood consumption” value in series [2] (1 and 3 month interval after wood treatment) was “greatest effect on decreasing wood consumption”. Also, in series [2] (balsa wood soaked in 1% ethanol solution, 1, 3 and 6 months after treatment, day 8), the “wood consumption vs control group” value is recorded as “consumed less wood than the control group”. Further, in series [2] (six months after the initial treatment of the wood sample), the “effectiveness as a termite repellent” value was “retained their effectiveness”. In addition, the “reduction of wood consumption compared with borate solution” value in series [2] (six months after wood treatment) was “as effective as the borate solution”. Moreover, the “tunneling activity of the termites” value in series [2] (treated balsa wood, even after three months) was “substantially reduced with vetiver oil and especially with nootkatone”. Further, the toxicity to humans result in the series with humans is reported as “essentially non-toxic to humans”.
Consider `CC1=CC[C@@]23C[C@@H]1C(C)(C)[C@@H]2CC[C@H]3C` [α-Cedrene, α-cedrene], for which, in the series with termites, the termite deaths entry was “None of the termites died”. For the same compound, the repellency for termites entry with termites (2-3 h time frame) is given as “weak repellent”. The “Percent of termites on the untreated side (sum of the three replicates)” value is listed as 50% in the series with termites (1 hr); 93.3% with termites (2 hr); 86.7% in the series with termites (3 hr); 63.3% in the series with termites (4 hr); 63.3% in the series with termites (24 hr).
